Series [1] concerns tissue model of the human epidermis prepared from cultured human keratinocytes and melanocytes. Put plainly: Ex vivo whitening test in tissue model of the human epidermis. The format is cell-based. Particulars: 2% of acetyl-glycine-beta-alanine, 9 day.
Series [2] deals with age spot. Put plainly: In vivo human study, spot-brightening. The conditions noted are these: after 14 days.
The test system of series [3] is IL-6. The series can be described thus: In vitro anti-inflammation study, IL-6 level after UVB exposure. The conditions noted are these: human epidermal keratinocytes after exposure on UVB light. The format is cell-based.
Series [4] deals with IL8. Put plainly: In vitro anti-inflammation study, IL8 level after UVB exposure. The format is cell-based. Particulars: human epidermal keratinocytes after exposure on UVB light.
In series [5] the test system is melanin formation. The conditions noted are these: taught in U.S. patent application Ser. No. 13/128,446; cited from earlier work.
The conditions of series [6]: taught in U.S. patent application Ser. No. 13/128,446; cited from earlier work.
A short description of series [7]: Long term storage stability by powder X-ray diffraction. The format is physicochemical. Particulars: room temperature for 1 year without any humidity controlling. How it is done:
(§1) The procedure of powder X-ray diffraction test used for obtaining FIG. 1, FIG. 2, FIG. 7 and FIG. 8 is described as follows:
(§2) The crystalline polymorphs of acetyl-glycine-beta-alanine was analyzed by an X-ray powder Diffractometer, Bruker D8 Advanced, equipped with a Cu anode (λ=1.540600 Angstrom). X-ray source operated at 40 kV, 40 mA. The measuring 2-theta range was from about 5 to 60 degree and step width was 0.05 degree.
Long term storage stability can be found in both crystalline polymorph A and crystalline polymorph B of acetyl-glycine-beta-alanine. The powder X-ray diffraction pattern of the crystalline polymorph A and crystalline polymorph B are shown as FIG. 1 and FIG. 2, wherein the crystalline polymorph A and crystalline polymorph B were stored at room temperature for 1 year without any humidity controlling.

Series [8] in a line: Thermal stability study by powder X-ray diffraction. In kind it is physicochemical. The conditions noted are these: 140° C. oven with air circulation for 4 hours. How it is done:
as §1, §2
Thermal Stability Study for Both of Crystalline Polymorph A and Crystalline Polymorph B of Acetyl-Glycine-Beta-Alanine:
The crystalline polymorph A of acetyl-glycine-beta-alanine and crystalline polymorph B of acetyl-glycine-beta-alanine were stored at 140° C. oven with air circulation for 4 hours, and then analyzed with powder X-ray diffraction.

Series [9] can be described thus: Thermodynamic stable crystalline polymorph study: slurry equilibrium. The conditions noted are these: 5 g polymorph A + 5 g polymorph B in isopropanol/water 100 g/10 g; 40 to 45° C. 8 hours, then 25 to 30° C. 48 hours. In kind it is physicochemical. Here is the method:
Thermodynamic Stable Crystalline Polymorph Study: Slurry Equilibrium
Both of 5 grams of crystalline polymorph A and 5 grams of crystalline polymorph B of acetyl-glycine-beta-alanine were put into a flask. 100 grams of isopropanol and 10 grams of water were added into the flask to form a mixture. The mixture was stirred at 40 to 45° C. for 8 hours and then at 25 to 30° C. for 48 hours. The mixture was cooled to 15 to 20° C. and the crystalline was filtered out. The crystalline was dried and analyzed with powder X-ray diffraction and Fourier transform infrared spectrum.

The nature of series [10]: Solubility study in different solvents (HPLC). In kind it is physicochemical. The conditions noted are these: for Solubility: room temperature, 30 min. Here is the method:
The Solubility Study of Crystalline Polymorph A and Polymorph B of Acetyl-Glycine-Beta-Alanine
According to the theory of thermodynamic of polymorphism, the most thermodynamic stable crystalline polymorph has lowest solubility. The solubility of both of the crystalline polymorph A and polymorph B of acetyl-glycine-beta-alanine were measured in different solvents.
The solubility measurement procedure was described as the following. Prepared a saturated acetyl-glycine-beta-alanine solution with 1 gram of test solvents and then stir it for 30 min at room temperature. Collected the solution through a filter and used HPLC to analyze its solubility. The solubility was represented by mg of the polymorphs/grams of the solvent.

The mark [11] stands for this setting: Ethanol/water: 95/5 (weight ratio).
Where [12] appears, read: Isopropanol/water: 3/1 (weight ratio).

Each structure is given as a SMILES string.

Consider `CC(=O)NCC(=O)NCCC(=O)O` [acetyl-glycine-beta-alanine], for which the “existing melanin level (whitening efficacy)” value in series [1] is −30%. The “age spot reduction (spot-brightening)” value in series [2] is 51.67%. Moreover, in series [3], the IL-6 level result is listed as “reduced”. For the same compound, the IL8 level result in [4] is recorded as “reduced”. Also, in [5], the inhibiting melanin formation result is on record as “capable of inhibiting melanin formation”. The “color stability in the cosmetic formulation” value in series [6] is recorded as “good color stability”.

For `CC(=O)NCC(=O)NCCC(=O)O` [crystalline polymorph A, acetyl-glycine-beta-alanine], in series [7], the “long term storage stability (powder X-ray diffraction pattern)” value is “not changed”. Moreover, in series [8], the “thermal stability (powder X-ray diffraction pattern)” value is recorded as “still not changed”. Moreover, the “crystalline form obtained after slurry equilibrium” value in [9] is reported as “the obtained crystalline was crystalline polymorph A”. The Solubility is given as 18.4 mg/g in series [10] (setting [11]), 62.3 mg/g in [10] (setting [12]), 26.5 mg/g in [10] (Methanol) and 177.0 mg/g in [10] (Water). The “thermodynamic stability (from solubility results)” value in series [10] (concluded from lower solubility in various solvents) is “thermodynamically stable”.

As to `CC(=O)NCC(=O)NCCC(=O)O` [crystalline polymorph B, acetyl-glycine-beta-alanine], the “long term storage stability (powder X-ray diffraction pattern)” value in [7] is reported as “not changed”. The “thermal stability (powder X-ray diffraction pattern)” value in series [8] is listed as “changed”. In addition, the Solubility was 23.9 mg/g in series [10] (setting [11]), 76.4 mg/g in series [10] (setting [12]), 32.4 mg/g in [10] (Methanol) and 223.2 mg/g in series [10] (Water).
